How the values were obtained:
Format in all cases: in vivo, rat
[1] = In-bred DIO (Levin) rats, amylin and leptin, body weight and NMR body composition (Example 2); conditions: two weeks, leptin 500 μg/kg/day, amylin 100 μg/kg/day, FIG. 6A
Experimental: They were housed individually in shoebox cages at 22 C in a 12/12-hour light dark cycle.
(§1) Body composition was measured prior to and after drug treatment using NMR (Echo Medical Systems, Houston, Tex.). For body composition measurements, rats were briefly placed (˜1 min) in a well-ventilated plexiglass tube that was then inserted into a specialized rodent NMR machine. Rats were scanned prior to pump implantation and on the final day of the experiment. This enabled the calculation of changes in actual grams of fat and dry lean tissue (e.g., grams of body fat after treatment−grams of body fat at baseline=change in grams of body fat) and changes in % body composition for fat and dry lean tissue (e.g., % body fat after treatment−% body fat at baseline=change in % body fat).

[2] = Pair-feeding experiment in DIO rats, amylin+leptin (Example 2); conditions: two weeks, ad libitum access to food, FIG. 7
Experimental: Amylin is known to have an anorectic effect on a recipient. In order to examine the effect of amylin+leptin in the context of an anorectic effect of amylin, a pair-feeding experiment was performed. DIO rats and drug treatment groups were established as described above. DIO rats in the vehicle, amylin, and amylin+leptin treatment groups had ad libitum access to food, while intake in the pair-fed leptin treatment was restricted to the amount consumed by the amylin-treated group. Body weight was recorded daily for the two weeks of treatment. […] The combination of amylin+leptin results in a decrease of about 12% in body weight relative to vehicle control.

[3] = Serum leptin levels by immunoassay in DIO prone and normal HSD rats after amylin (Example 3); conditions: amylin 100 μg/kg/day, 14 days, FIG. 8
Experimental: DIO prone and normal HSD rats were divided into three treatment groups. Two groups were implanted with subcutaneous osmotic mini-pumps (DURECT Corp., Cupertino, Calif.) designed to deliver vehicle or amylin (100 μg/kg/day) and the third group was pair-fed to the amount consumed by the amylin-treated group for a 14 day period. Serum leptin levels were determined by immunoassays using a commercial kit (Linco Research, Inc., St. Charles, Mo.). […] Thus, DIO prone rats are hyper-leptinemic.

[4] = DIO rats, amylin and sibutramine, body weight and body composition (Example 4)
Experimental: as §1, with “Rat amylin was dissolved in 50% DMSO in sterile water and sibutramine was dissolved in sterile water. Each group was implanted with subcutaneous osmotic mini-pumps designed to deliver vehicle, sibutramine (3 mg/kg/day) or amylin (100 μg/kg/day) for a 14 day period. Body weight and food intake were recorded daily. Body” for “Body”

[5] = DIO rats, amylin and phentermine, body weight and body composition (Example 4)
Experimental: The combination of amylin and catecholaminergic agonist, phentermine, were also tested for effects on changes in body weight and body composition. Phentermine is classically referred to as a catecholaminergic agonist as it actually hits NA/5-HT receptors. DIO male rats were fattened and divided into four treatment groups, as described above. Each group was implanted with subcutaneous osmotic mini-pumps and/or inserted with an oral gavage, designed to deliver vehicle, phentermine (10 mg/kg/day), amylin (100 μg/kg/day) or phentermine (10 mg/kg/day)+amylin (100 μg/kg/day) for a 14 day period. The mini-pump contained either vehicle (50% DMSO in water) or amylin while the oral gavage administered either sterile water or phentermine. Body weight was recorded daily and body composition was measured prior to and after drug treatment using NMR.

[6] = DIO (Levin) rats, amylin and CB-1 antagonist rimonabant, body weight and body composition (Example 5)
Experimental: These rats were developed by Barry Levin from a line of Crl:CD®(SD)BR rats that are prone to become obese on a diet relatively high in fat and energy. They were housed individually in shoebox cages at 22 C in a 12/12-hour light dark cycle. […] Rats were habituated to oral gavage for 1 week prior to treatment. Rimonabant was administered at a range of doses (0.1, 0.3, 1.0, 3.0. 10 mg/kg/day) by oral gavage. Amylin (dissolved in 50% DMSO sterile water) or vehicle was administered by mini-pump (100 μg/kg/day). Rimonabant was always delivered just prior to lights out. Food intake and body weight were measured at 1 and 2 weeks post-treatment. Body composition was measured prior to and after drug treatment using NMR (Echo Medical Systems, Houston, Tex.). For body composition measurements, rats were briefly placed (˜1 min) in a well-ventilated plexiglass tube that was then inserted into a specialized rodent NMR machine. Rats were scanned prior to pump implantation and on the final day of the experiment. This enabled the calculation of changes in actual grams of fat and dry lean tissue (e.g., grams of body fat after treatment−grams of body fat at baseline=change in grams of body fat) and changes in % body composition for fat and dry lean tissue (e.g., % body fat after treatment−% body fat at baseline=change in % body fat).

[7] = DIO rats, amylin and exendin-4 analog, body weight and body composition (Example 6)
Experimental: as §1, with “[…]. Prior to drug administration rats had typically attained a mean body weight of 500 g Exendin-4 analog was administered by minipump at a range of doses (0.3, 1, 3, 10, 30 μg/kg/day). Amylin (dissolved in 50% DMSO in water) or vehicle was administered by mini-pump (100 μg/kg/day). Body weight and food intake was recorded daily. Body” for “Body”

[8] = DIO rats, amylin and PYY(3-36), body weight and body composition (Example 7)
Experimental: Each group was implanted with subcutaneous osmotic mini-pumps, designed to deliver vehicle, PYY(3-36) (1000 μg/kg/day), amylin (100 μg/kg/day) or PYY(3-36) (1000 μg/kg/day)+amylin (100 μg/kg/day) for a 14 day period. PYY(3-36) was administered by mini-pump at a range of doses (100, 200, 400, 800, 1000 μg/kg/day). Amylin 100 μg/kg/day (dissolved in 50% DMSO sterile water), PYY(3-36) (dissolved in 50% DMSO sterile water) or vehicle was administered by mini-pump. Food intake and body weight was recorded daily. Body composition was measured prior to and after drug treatment using NMR (Echo Medical Systems, Houston, Tex.). For body composition measurements, rats were briefly placed (˜1 min) in a well-ventilated plexiglass tube that was then inserted into a specialized rodent NMR machine. Rats were scanned prior to pump implantation and on the final day of the experiment. This enabled the calculation of changes in actual grams of fat and dry lean tissue (e.g., grams of body fat after treatment−grams of body fat at baseline […]) and changes in % body composition for fat and dry lean tissue (e.g., % body fat after treatment−% body fat at baseline=change in % body fat).

Q: For Rat amylin, which “vehicle-corrected decrease in percent body weight” value [1] is on record?
A: 6%

Q: What about the “decrease in body weight relative to vehicle control” value [2] of the same substance?
A: ~6%

Q: And the “serum (plasma) leptin levels” value ([3]; DIO prone rats)?
A: significantly reduced

Q: What about the “serum (plasma) leptin levels” value ([3]; normal HSD rats) of the same substance?
A: significantly reduced

Q: What about the “changes in body fat (fat mass)” value ([4]; after two weeks, FIG. 10B) of the same substance?
A: Fat mass loss was evident

Q: And the “changes in body protein (lean mass)” value ([4]; after two weeks, FIG. 10C)?
A: increase in lean (protein) mass

Q: And the “vehicle-corrected decrease in percent body weight” value ([4]; two weeks, sibutramine 3 mg/kg/day, amylin 100 μg/kg/day, FIG. 10A)?
A: ~6%

Q: And the “changes in body fat (fat mass)” value ([5]; after two weeks, FIG. 11B)?
A: greater amount of fat mass loss

Q: And the “changes in body protein (lean mass)” value ([5]; after two weeks, FIG. 11C)?
A: preserved lean (protein) mass

Q: What about the “vehicle-corrected decrease in percent body weight” value ([5]; two weeks, phentermine 10 mg/kg/day oral gavage, amylin 100 μg/kg/day, FIG. 11A) of the same substance?
A: ~7%

Q: And the “changes in body fat (fat mass)” value ([6]; after two weeks, FIG. 12B)?
A: Fat mass loss was evident

Q: What about the “changes in body protein (lean mass)” value ([6]; after two weeks, FIG. 12C) of the same substance?
A: relatively equivalent increase in lean (protein) mass

Q: And the “vehicle-corrected decrease in percent body weight” value ([6]; two weeks, rimonabant 3 mg/kg/day oral gavage, amylin 100 μg/kg/day, FIG. 12A)?
A: ~6%

Q: What about the “changes in body fat (fat mass)” value ([7]; after two weeks, FIG. 15B) of the same substance?
A: relatively equivalent decrease in fat mass

Q: What about the “changes in body protein (lean mass)” value ([7]; after two weeks, FIG. 15C) of the same substance?
A: relatively equivalent increase in lean (protein) mass

Q: What about the “vehicle-corrected decrease in percent body weight” value ([7]; two weeks, exendin-4 analog 10 μg/kg/day, amylin 100 μg/kg/day, FIG. 15A) of the same substance?
A: ~6%

Q: And the “changes in body protein (lean mass)” value ([8]; after two weeks, FIG. 16C)?
A: increase in lean (protein) mass

Q: And the “changes in body fat (fat mass loss)” value ([8]; after two weeks, order PYY(3-36) alone, amylin alone, combination, FIG. 16B)?
A: Increasing amount of fat mass loss

Q: What about the “vehicle-corrected decrease in percent body weight” value ([8]; two weeks, PYY(3-36) 1000 μg/kg/day, amylin 100 μg/kg/day, FIG. 16A) of the same substance?
A: ~7%

From US8394765B2, “Methods of treating obesity with two different anti-obesity agents” (Amylin Pharmaceuticals LLC, priority 2004, dated 2013)
